The text below walks through data of patent US20080076824A1, “Compounds That Inhibit Replication Of Human Immunodeficiency Virus” (priority 2004, published 2008).

In data set [1] the test system is human PBMC. The data set can be described thus: Mitogenic activity assay, [3H]dThd incorporation in human PBMC with or without PHA. In kind it is cell-based. The following applies: concentrations up to 200 μg/ml, absence of PHA. As to the method:
The mitogenic activity assay was conducted as follows. Human PBMC were isolated from buffy coats and brought in RPMI-1640 cell culture medium supplemented with 10% FCS and 2 mM L-glutamine. The cell cultures were exposed to several concentrations of the test compounds for 3 days in the absence or presence of PHA (phytohemagglutinin) (Murex Biotech Ltd., Dartford, UK) at 2 μg/ml. Subsequently, 0.25 μCi [CH3^−3H]dThd was added and, after 20 hr incubation at 37° C., the cells were precipitated in the presence of 10% TCA and the precipitate was washed twice with 10% TCA, twice with 5% TCA and once with 70% ethanol. The precipitate, containing [^3H]DNA, was then examined for radioactivity in a liquid scintillation counter.

Data set [2] in a line: Conversion of [14C]G-NH2 to Metabolite X by sera of different animals. In kind it is in vitro ADME. The method, then:
Next, an evaluation of sera obtained from other animals was analyzed for their ability to convert G-NH2 to modified G-NH2. Serum obtained from pigs (PS), mice (MS), dogs (CS), cats (FS), horse (ES), and monkey (SS) was incubated with HPLC purified G-NH2 and at 15 minutes, 1 hour, 6 hours, and/or 24 hours an aliquot of the mixture was removed and analyzed by cation exchange HPLC, as described above. Approximately a 10% dilution of serum in PBS was used.
Approximately, 0.1 μCi [^14C]G-NH2 ([…]) is added to a reaction mixture containing 10% serum in phosphate-buffered saline (PBS) (pH 7.5) (total volume: 100 μl). The reaction was carried out for different time periods. Sera, used in the study were from human, murine (mouse and rat), avian (chicken), rabbit, simian, feline, canine, porcine, equine or bovine (cow) origin. At the completion of the time period for each reaction, approximately 200 μl cold methanol was added to stop the reaction and the samples were placed on ice for 10 minutes. Subsequently, the samples were subjected to centrifugation (5 min, 15000 rpm). The supernatants were then injected on a Cation Exchange Column (Whatman) (Partisphere-SCX) and G-NH2 and Metabolite X were separated on a gradient of ammonium phosphate buffer 5 mM pH 3.5 (Buffer A) and ammonium phosphate buffer 0.300 M pH 3.5 (Buffer B) [10 min A+6 min to 83% B+17% H2O) (C)+2 min C-+6 min to A)]. […]

The subject of data set [3] is HIV (SF2 virus). The data set can be described thus: HIV infectivity assay, SF2-infected H9 cells, visible syncytia. In kind it is cell-based. The note with it: for Visible syncytia: H9/SF2, day 11.
In data set [4] the test system is CEM cells.
Data set [5] can be described thus: Conversion of G-NH2 to modified G-NH2 by pig plasma (cation exchange HPLC). It is filed as in vitro ADME. The note with it: 37° C. As to the method: (§1) Various concentrations of G-NH2 were mixed with either 90% pig plasma or 90% dialyzed pig plasma in PBS and the reactions were conducted at 37° C. for 24 hours. Subsequently, aliquots of the mixtures were separated by cation exchange HPLC, as described previously, and the conversion of G-NH2 to modified G-NH2 was evaluated. […] Saturation of the enzyme activity of cofactor(s) in pig plasma (90% in PBS) occurred between 1,000 μM and 10,000 μM G-NH2.

Data set [6] in a line: Conversion of radiolabeled G-NH2 to modified G-NH2 by fetal bovine sera. The following applies: 10% fetal bovine sera in PBS, 37° C. It is filed as in vitro ADME. As to the method: Several lots of human sera and fetal bovine sera were analyzed for their ability to convert G-NH2 to modified G-NH2. Radiolabeled cation exchange HPLC purified G-NH2 (see EXAMPLE 3) was incubated with the various sera at a 10% final concentration in PBS at 37° C. for 15 minutes and 1, 6, 24, or 72 hours. Subsequently, the amount of radiolabeled modified G-NH2 was evaluated using the cation exchange HPLC approach described above.

The nature of data set [7]: Conversion of G-NH2 to modified G-NH2 by dialyzed pig plasma (cation exchange HPLC). It is filed as in vitro ADME. The following applies: for conversion to modified G-NH2 (24 hr) (percent conversion) Dialysed Pig plasma: 37° C.; for Percent conversion / μM formation: 6 hr. The method, then:
In still another set of experiments, a first step isolation of the cofactor present in pig plasma was performed and the enzymatic activity of the isolated product was compared to the enzymatic activity of the crude product. An aliquot of pig plasma was placed in dialysis tubing (MW cut off 10,000) and the serum was subjected to dialysis. Subsequently, the pig plasma dialysate was evaluated for the ability to convert G-NH2 to modified G-NH2.
as §1
In still another set of experiments, the saturation point of the isolated cofactor found in pig plasma was more closely scrutinized. Dialyzed pig plasma (90% in PBS) was mixed with concentrations of G-NH2 between […] and 10,000 μM. Subsequently, the mixtures were incubated at 37° C. for 6 hours and aliquots were separated by cation exchange HPLC, as before. The results shown in TABLE 8 confirmed that the saturation point of the cofactor(s) in pig plasma was near 2,000 μM G-NH2.

The nature of data set [8]: Conversion of G-NH2 to Metabolite X in 10% pig serum with and without reducing agents. The following applies: absence of GTT, NAC and DTT. In kind it is in vitro ADME. The method, then:
In another set of experiments, the conversion of GNH2 to modified glycinamide (Metabolite X) in pig serum (10%) was monitored over time in the presence and absence of differing concentrations (e.g., 40 mM, 10 mM, 4 mM) of reducing agents (glutathione (GTT), N-acetyl cysteine (NAC), and dithiothreitol (DTT)). […] See Han et al., Bull. Korean. Chem. Soc., 17, 659-661 (1996). In the absence of GTT, NAC and DTT, almost 100% coversion to Metabolite X was seen.

Data set [9] deals with CEM cells. The data set can be described thus: Cytotoxicity / cell proliferation in CEM cells.
A short description of data set [10]: Cytotoxicity / cell proliferation in CEM cells. The following applies: human.
The test system of data set [11] is HIV-1 laboratory strains and clinical isolates. The following applies: wide variety of HIV-1 laboratory strains and clinical isolates; cited from earlier work.
The mark [12] stands for this setting: 2,000 μM G-NH2, dialyzed pig plasma 90% in PBS.
[13] abbreviates: 4,000 μM G-NH2, dialyzed pig plasma 90% in PBS.
[14] abbreviates: 6,000 μM G-NH2, dialyzed pig plasma 90% in PBS.
Where [15] appears, read: 8,000 μM G-NH2, dialyzed pig plasma 90% in PBS.
[16] abbreviates: 10,000 μM G-NH2, dialyzed pig plasma 90% in PBS.

pEC50: −log10 of the molar value. Counter-ions that a name gives are not always drawn. Like-named read-outs stand apart in the source and are kept apart here. Residues, ends and D or L forms follow the SMILES beside them.

`NC(=O)C(N)O` (stereo not drawn) [AlphaHGA, α-Hydroxy-glycinamide hydrochloride]: the “mitogenic activity against human PBMCs” value in [1] was “non-mitogenic”.
The CC50 is the concentration that lowers cell viability or growth by half. The pEC50 is the negative decadic logarithm of the EC50, by convention in mol/L. A low value points to a high EC50. With `NCC(N)=O` [G-NH2, glycinamide], the “conversion to modified glycinamide” value in data set [2] (human, mouse, rat, and avian sera) is “did not effectively catalyze”. Besides, the “conversion to Metabolite X” value in data set [2] (rabbit, simian, feline, canine, porcine, equine and bovine sera) is “readily converted to Metabolite X”; in data set [8], ~100%. Besides, the Visible syncytia result in data set [3] (100 μM in boiled RPMI++) was “positive”; in data set [3] (100 μM in normal RPMI++ (10% FCS)) it was “negative”. Also, in data set [3] (boiled fetal calf serum), the “inhibition of replication and/or propagation of HIV by visual inspection” value was “did not”. For the same compound, in [4], the half-maximal cytotoxic concentration (CC50) is > 2 mM. Also, in data set [4], the pEC50 is < 2.70. The “no cytotoxicity at concentrations as high as” value in [4] was 1500 to 2000 µM. In addition, the “conversion to modified G-NH2 (24 hr) (percent conversion) Pig plasma” value in data set [5] (18 μM G-NH2, plasma 90% in PBS) is on record as 99.7%; in data set [5] (100 μM G-NH2, plasma 90% in PBS), 99.7%; in data set [5] (1,000 μM G-NH2, plasma 90% in PBS) it was 98.7%; in [5] (10,000 μM G-NH2, plasma 90% in PBS), “˜24.5%”. The figures for the “conversion of G-NH2 to modified G-NH2” value in data set [6] (6 hours) and in [6] (24 hours) were 6-10% and 18-32%, respectively. For the same compound, the “conversion to modified G-NH2 (24 hr) (percent conversion) Dialysed Pig plasma” value in data set [7] (18 μM G-NH2, 90% in PBS) came out at 99.8%; in data set [7] (100 μM G-NH2, 90% in PBS), 99.8%; in [7] (1,000 μM G-NH2, 90% in PBS), 99.8%; in data set [7] (10,000 μM G-NH2, 90% in PBS), 24.7%. The Percent conversion in [7] (setting [12]) is 82.6%; in data set [7] (setting [13]) it was 42.1%; in data set [7] (setting [14]), 24.9%; in [7] (setting [15]), 21.0%; in [7] (setting [16]), 17.0%. The μM formation is 1,652 μM in [7] (setting [12]); 1,684 μM in data set [7] (setting [13]); 1,494 μM in data set [7] (setting [14]); 1,680 μM in data set [7] (setting [15]); 1,700 μM in [7] (setting [16]).
Regarding `NCC(=O)N1CCC[C@H]1C(=O)NCC(N)=O` [GPG-NH2, glycylprolylglycinamide] (H-Gly-Pro-Gly-NH2), the “no cytotoxicity at concentrations as high as” value in [9] fell in the range of 1500 to 2000 µM. Also, in data set [10], the pEC50 was < 2.70. The “concentration range blocking HIV-1” value in data set [11] was 2 to 40 µM.
